Drawing on patent US8957093B2, “N-biphenylmethylindole modulators of PPARG” (The Scripps Research Institute, priority 2011, dated 2015), this text covers IC50, EC50 and activation for 23 compounds.

Where two headings read alike, the source gives them in different places.

Experiment [1] concerns the target GST-PPARG-LBD (Homo sapiens (Human), UniProt P37231). Briefly: Lanthascreen PPARG competitive binding assay (Invitrogen, TR-FRET). Conditions: NA = not active, inc = incomplete curve, read-out: IC50 (nM) Lantha. The procedure, abridged:
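Values are fold change in 520 nm/490 nm FRET ratio relative to a 2% DMSO no-ligand control, excitation 340 nm. Compound dilutions starting at 10 μM competed against 5 nM Fluormone Pan-PPAR Green for GST-PPARG-LBD bound by 5 nM Tb anti-GST antibody. Incubation 2 h in the dark in assay buffer C, triplicate wells.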

Experiment [2] concerns the target Gal-4-PPAR (human PPAR LBD fused to GAL4 DNA-binding domain) (Homo sapiens (Human), UniProt P37231). Description: GAL4-PPARG LBD / UAS-luciferase transactivation assay in HEK 293T cells. It counts as cell-based.
[3] abbreviates: Lanthascreen competitive binding.
Setting [4] is: GAL4 transactivation, HEK 293T cells; NA = not active; read-out: EC50 (nM) GAL4.
Where [5] appears, read: HEK-293T, 18 h; read-out: % transactivation at 10 μM (GAL4).
The mark [6] stands for this setting: HEK-293T, 18 h, read-out: % transactivation at 10 μM (GAL4).
Setting [7] is: Lanthascreen PPARG competitive binding.

Gal-4-PPAR (human PPAR LBD fused to GAL4 DNA-binding domain), sequence (P37231 238-503): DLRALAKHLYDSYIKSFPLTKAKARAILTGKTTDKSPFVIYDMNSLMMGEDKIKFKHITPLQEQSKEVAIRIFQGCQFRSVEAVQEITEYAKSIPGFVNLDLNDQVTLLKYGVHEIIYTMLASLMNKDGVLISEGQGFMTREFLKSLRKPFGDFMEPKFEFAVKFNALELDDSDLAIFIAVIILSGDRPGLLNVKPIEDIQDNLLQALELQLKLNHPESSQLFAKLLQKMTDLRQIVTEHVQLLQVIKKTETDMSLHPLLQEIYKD
GST-PPARG-LBD, sequence (P37231 238-503): as above

For `Cc1c(C)n(Cc2ccc(-c3ccccc3C(=O)O)cc2)c2ccc(C(=O)N[C@H](C)c3c(Cl)cccc3Cl)cc12` [Example 141, (R)-4′-((5-((1-(2,6-dichlorophenyl)ethyl)carbamoyl)-2,3-dimethyl-1H-indol-1-yl)methyl)-[1,1′-biphenyl]-2-carboxylic acid], the IC50 – broadly, the concentration needed to halve the response being measured – in experiment [1] (setting [3]) was determined as 30 nM. Also, the EC50 (as a rule, the concentration that produces a half-maximal response) in experiment [2] (setting [4]) came out at 529 nM. Also, the activation at 10 µM in experiment [2] (setting [5]) turned out to be 20%.
The like results for `Cc1c(C)n(Cc2ccc(-c3ccccc3C(=O)O)cc2)c2ccc(C(=O)N[C@@H](C)c3c(Cl)cccc3Cl)cc12` [Example 142, (S)-4′-((5-((1-(2,6-dichlorophenyl)ethyl)carbamoyl)-2,3-dimethyl-1H-indol-1-yl)methyl)-[1,1′-biphenyl]-2-carboxylic acid] were, in that order, 51 nM, 6060 nM and 15%.
Regarding `Cc1c(C)n(Cc2ccc(-c3ccccc3C(=O)O)cc2)c2ccc(C(=O)N[C@@H](C)c3cccc4c3OCO4)cc12` [Example 143, (S)-4′-((5-((1-(benzo[d][1,3]dioxol-4-yl)ethyl)carbamoyl)-2,3-dimethyl-1H-indol-1-yl)methyl)-[1,1′-biphenyl]-2-carboxylic acid], in experiment [1] (setting [3]), the half-inhibitory concentration (IC50) was found to be 10 nM. In experiment [2] (setting [4]), the 50% effective concentration (EC50) was found to be 189 nM. In experiment [2] (setting [5]), the activation at 10 µM came out at 45%.
In the case of `Cc1c(C)n(Cc2ccc(-c3ccccc3C(=O)O)cc2)c2ccc(C(=O)N[C@@H](C)c3ccccn3)cc12` [Example 144, (S)-4′-((2,3-dimethyl-5-((1-(pyridin-2-yl)ethyl)carbamoyl)-1H-indol-1-yl)methyl)-[1,1′-biphenyl]-2-carboxylic acid], the IC50 in experiment [1] (setting [3]) was 2 nM. In experiment [2] (setting [4]), the 50% effective concentration (EC50) worked out at 13 nM. In addition, the activation at 10 µM in experiment [2] (setting [5]) was found to be 25%.
With `Cc1c(F)cccc1[C@H](C)NC(=O)c1ccc2c(c1)c(C)c(C)n2Cc1ccc(-c2ccccc2C(=O)O)cc1` [Example 145, (S)-4′-((5-((1-(3-fluoro-2-methylphenyl)ethyl)carbamoyl)-2,3-dimethyl-1H-indol-1-yl)methyl)-[1,1′-biphenyl]-2-carboxylic acid], the 50% inhibitory concentration (IC50) in experiment [1] (setting [3]) is less than 1 nM. The EC50 in experiment [2] (setting [4]) was 70 nM. Further, the activation at 10 µM in experiment [2] (setting [5]) was found to be 35%.
In the case of `COc1cc(F)cc([C@H](C)NC(=O)c2ccc3c(c2)c(C)c(C)n3Cc2ccc(-c3ccccc3C(=O)O)cc2)c1` [Example 146, (S)-4′-((5-((1-(3-fluoro-5-methoxyphenyl)ethyl)carbamoyl)-2,3-dimethyl-1H-indol-1-yl)methyl)-[1,1′-biphenyl]-2-carboxylic acid], the IC50 in experiment [1] (setting [3]) is 12 nM. Further, the EC50 in experiment [2] (setting [4]) was determined as 455 nM. The activation at 10 µM in experiment [2] (setting [5]) came to 30%.
Turning to `COc1cc(OC)cc([C@H](C)NC(=O)c2ccc3c(c2)c(C)c(C)n3Cc2ccc(-c3ccccc3C(=O)O)cc2)c1` [Example 147, (S)-4′-((5-((1-(3,5-dimethoxyphenyl)ethyl)carbamoyl)-2,3-dimethyl-1H-indol-1-yl)methyl)-[1,1′-biphenyl]-2-carboxylic acid], the IC50 in experiment [1] (setting [3]) came to 20 nM. The EC50 in experiment [2] (setting [4]) was found to be 9280 nM. In addition, the activation at 10 µM in experiment [2] (setting [5]) turned out to be 20%.
Turning to `Cc1c(C)n(Cc2ccc(-c3ccccc3C(=O)O)cc2)c2ccc(C(=O)N[C@@H](C)c3ccncc3Cl)cc12` [Example 148, (S)-4′-((5-((1-(3-chloropyridin-4-yl)ethyl)carbamoyl)-2,3-dimethyl-1H-indol-1-yl)methyl)-[1,1′-biphenyl]-2-carboxylic acid], the IC50 in experiment [1] (setting [3]) was determined as 41 nM. In addition, the EC50 in experiment [2] (setting [4]) was found to be 7540 nM. For the same compound, in experiment [2] (setting [5]), the activation at 10 µM turned out to be 35%.
On to `Cc1c(C)n(Cc2ccc(-c3ccccc3C(=O)O)cc2)c2ccc(C(=O)N[C@@H](C)c3ccnc4ccccc34)cc12` [Example 149, (S)-4′-((2,3-dimethyl-5-((1-(quinolin-4-yl)ethyl)carbamoyl)-1H-indol-1-yl)methyl)-[1,1′-biphenyl]-2-carboxylic acid], for which the IC50 in experiment [1] (setting [3]) is 6 nM. Further, the concentration giving a half-maximal response (EC50) in experiment [2] (setting [4]) turned out to be 1680 nM. The activation at 10 µM in experiment [2] (setting [5]) was found to be 15%.
Turning to `Cc1c(C)n(Cc2ccc(-c3ccccc3C(=O)O)cc2)c2ccc(C(=O)N[C@@H](C)c3ccc(F)cc3F)cc12` [Example 150, (S)-4′-((5-((1-(2,4-difluorophenyl)ethyl)carbamoyl)-2,3-dimethyl-1H-indol-1-yl)methyl)-[1,1′-biphenyl]-2-carboxylic acid], in experiment [1] (setting [3]), the IC50 came to 5 nM. For the same compound, the EC50 in experiment [2] (setting [4]) worked out at 180 nM. Further, the activation at 10 µM in experiment [2] (setting [5]) is 30%.
For `CCOc1cccc([C@H](C)NC(=O)c2ccc3c(c2)c(C)c(C)n3Cc2ccc(-c3ccccc3C(=O)O)cc2)c1` [Example 151, (S)-4′-((5-((1-(3-ethoxyphenyl)ethyl)carbamoyl)-2,3-dimethyl-1H-indol-1-yl)methyl)-[1,1′-biphenyl]-2-carboxylic acid], the half-inhibitory concentration (IC50) in experiment [1] (setting [3]) stood at 21 nM. Moreover, in experiment [2] (setting [4]), the EC50 is 618 nM. Further, in experiment [2] (setting [6]), the activation at 10 µM was 25%.
For the compound `Cc1c(C)n(Cc2ccc(-c3ccccc3C(=O)O)cc2)c2ccc(C(=O)N[C@@H](C)c3cccc4ccccc34)cc12` [Example 152, (S)-4′-((2,3-dimethyl-5-((1-(naphthalen-1-yl)ethyl)carbamoyl)-1H-indol-1-yl)methyl)-[1,1′-biphenyl]-2-carboxylic acid], in experiment [1] (setting [3]), the concentration for half-maximal inhibition (IC50) was determined as 256 nM. Further, in experiment [2] (setting [4]), the concentration giving a half-maximal response (EC50) is 766 nM. The activation at 10 µM in experiment [2] (setting [5]) stood at 17%.
The corresponding values for `Cc1c(C)n(Cc2ccc(-c3ccccc3C(=O)O)cc2)c2ccc(C(=O)N[C@@H](C)c3ccc(OC(F)(F)F)cc3)cc12` [Example 153, (S)-4′-((2,3-dimethyl-5-((1-(4-(trifluoromethoxy)phenyl)ethyl)carbamoyl)-1H-indol-1-yl)methyl)-[1,1′-biphenyl]-2-carboxylic acid] are 28 nM, 4160 nM and 25%.
In the case of `Cc1c(C)n(Cc2ccc(-c3ccccc3C(=O)O)cc2)c2ccc(C(=O)N[C@@H](C)c3ccc(C(F)(F)F)cc3)cc12` [Example 154, (S)-4′-((2,3-dimethyl-5-((1-(4-(trifluoromethyl)phenyl)ethyl)carbamoyl)-1H-indol-1-yl)methyl)-[1,1′-biphenyl]-2-carboxylic acid], the IC50 in experiment [1] (setting [3]) stood at 61 nM. For the same compound, in experiment [2] (setting [4]), the concentration for a half-maximal effect (EC50) amounted to 522 nM. Further, in experiment [2] (setting [5]), the activation at 10 µM came to 5%.
For the compound `Cc1c(C)n(Cc2ccc(-c3ccccc3C(=O)O)cc2)c2ccc(C(=O)N[C@@H](C)c3cccc(F)c3)cc12` [Example 158, (S)-4′-((5-((1-(3-fluorophenyl)ethyl)carbamoyl)-2,3-dimethyl-1H-indol-1-yl)methyl)-[1,1′-biphenyl]-2-carboxylic acid], in experiment [1] (setting [3]), the IC50 was 8 nM. Besides, the EC50 in experiment [2] (setting [4]) is 259 nM. Further, in experiment [2] (setting [6]), the activation at 10 µM came out at 40%.
In the case of `Cc1c(C)n(Cc2ccc(-c3ccccc3C(=O)O)cc2)c2ccc(C(=O)N[C@@H](C)c3ccccc3Cl)cc12` [Example 159, (S)-4′-((5-((1-(2-chlorophenyl)ethyl)carbamoyl)-2,3-dimethyl-1H-indol-1-yl)methyl)-[1,1′-biphenyl]-2-carboxylic acid], the half-maximal inhibitory concentration (IC50) in experiment [1] (setting [3]) is less than 1 nM. Moreover, the EC50 in experiment [2] (setting [4]) came out at 152 nM. The activation at 10 µM in experiment [2] (setting [6]) worked out at 30%.
For `Cc1c(C)n(Cc2ccc(-c3ccccc3C(=O)NCCO)cc2)c2ccc(C(=O)N[C@@H](C)c3cccc(C(C)C)c3)cc12` [Example 307, (S)-1-((2′-((2-Hydroxyethyl)carbamoyl)-[1,1′-biphenyl]-4-yl)methyl)-N-(1-(3-isopropylphenyl)ethyl)-2,3-dimethyl-1H-indole-5-carboxamide], the IC50 in experiment [1] (setting [7]) was 600 nM.
In the case of `Cc1c(C)n(Cc2ccc(-c3ccccc3C(=O)NC[C@@H](O)C(=O)N(C)C)cc2)c2ccc(C(=O)N[C@@H](C)c3cccc(C(C)C)c3)cc12` [Example 309, 1-((2′-(((R)-3-(Dimethylamino)-2-hydroxy-3-oxopropyl)carbamoyl)-[1,1′-biphenyl]-4-yl)methyl)-N-((S)-1-(3-isopropylphenyl)ethyl)-2,3-dimethyl-1H-indole-5-carboxamide], in experiment [1] (setting [7]), the IC50 is more than 1000 nM.
For the compound `Cc1c(C)n(Cc2ccc(-c3ccccc3C(=O)NCCN(C)C)cc2)c2ccc(C(=O)N[C@@H](C)c3cccc(C(C)C)c3)cc12` [Example 310, (S)-1-((2′-((2-(Dimethylamino)ethyl)carbamoyl)-[1,1′-biphenyl]-4-yl)methyl)-N-(1-(3-isopropylphenyl)ethyl)-2,3-dimethyl-1H-indole-5-carboxamide], the concentration for half-maximal inhibition (IC50) in experiment [1] (setting [7]) is more than 1000 nM.
As for `Cc1c(C)n(Cc2ccc(-c3ccccc3C(=O)O)cc2)c2ccc(C(=O)N(C)Cc3ccccc3)cc12` [compound 3, 4′-((5-(Benzyl(methyl)carbamoyl)-2,3-dimethyl-1H-indol-1-yl)methyl)biphenyl-2-carboxylic acid], the 50% inhibitory concentration (IC50) in experiment [1] (setting [3]) came out at 206 nM.
With `COc1cc(CNC(=O)c2ccc3c(c2)c(C)c(C)n3Cc2ccc(-c3ccccc3C(=O)O)cc2)cc(OC)c1` [compound 22, 4′-((5-(3,5-Dimethoxybenzylcarbamoyl)-2,3-dimethyl-1H-indol-1-yl)methyl)biphenyl-2-carboxylic acid], the IC50 in experiment [1] (setting [3]) amounted to 10 nM.
On to `Cc1c(C)n(Cc2ccc(-c3ccccc3C(=O)O)cc2)c2ccc(C(=O)N[C@@H](C)c3ccc4ccccc4c3)cc12` [compound 26, (S)-4′-((2,3-Dimethyl-5-((1-(naphthalen-2-yl)ethyl)carbamoyl)-1H-indol-1-yl)methyl)-[1,1′-biphenyl]-2-carboxylic acid], for which the 50% inhibitory concentration (IC50) in experiment [1] (setting [3]) was more than 1000 nM.
For `Cc1c(C)n(Cc2ccc(-c3ccccc3C(=O)O)cc2)c2ccc(C(=O)NCC(=O)c3ccccc3)cc12` [compound 31, 4′-((2,3-Dimethyl-5-((2-oxo-2-phenylethyl)carbamoyl)-1H-indol-1-yl)methyl)-[1,1′-biphenyl]-2-carboxylic acid], the IC50 in experiment [1] (setting [3]) was 244 nM.
